Measurements: ChEMBL document CHEMBL1201862, “PubChem BioAssay data set” (2004)
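Test compounds were applied to cells in 96-well plates for 48 hours at 5 doses. At the GI50, growth is halved.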 Active and inactive are the calls of the source. No stated cut-off is given here; in the data, active = GI50 up to about 1.1 µM and inactive = higher.

Legend:
Assay in all cases: NCI-60 cell line screen, 48 h
OVCAR-3 = system: OVCAR-3
OVCAR-8 = system: OVCAR-8
CCRF-CEM = system: CCRF-CEM
ACHN = system: ACHN
SW-620 = system: SW-620
SK-MEL-5 = system: SK-MEL-5
Hs-578T = system: Hs-578T
NCI-H460 = system: NCI-H460
LOX IMVI = system: LOX IMVI
OVCAR-5 = system: OVCAR-5
SNB-75 = system: SNB-75
M14 = system: M14
Malme-3M = system: Malme-3M
SK-MEL-28 = system: SK-MEL-28
SN12C = system: SN12C
MCF7 = system: MCF7
MOLT-4 = system: MOLT-4
SR = system: SR
HT-29 = system: HT-29
OVCAR-4 = system: OVCAR-4
IGROV-1 = system: IGROV-1
SF-268 = system: SF-268
HCC 2998 = system: HCC 2998
RPMI-8226 = system: RPMI-8226
NCI-H23 = system: NCI-H23
CAKI-1 = system: CAKI-1
T47D = system: T47D
MDA-MB-231 = system: MDA-MB-231
NCI-H226 = system: NCI-H226
TK-10 = system: TK-10
UACC-257 = system: UACC-257
K562 = system: K562
SK-MEL-2 = system: SK-MEL-2
HOP-62 = system: HOP-62
PC-3 = system: PC-3
SF-539 = system: SF-539
HCT-15 = system: HCT-15
BT-549 = system: BT-549
HCT-116 = system: HCT-116
SNB-19 = system: SNB-19
NCI-H522 = system: NCI-H522
DU-145 = system: DU-145
786-0 = system: 786-0
HL-60 = system: HL-60
COLO 205 = system: COLO 205
MDA-N = system: MDA-N
A549 = system: A549
MDA-MB-435 = system: MDA-MB-435
EKVX = system: EKVX
NCI/ADR-RES = system: NCI/ADR-RES
SF-295 = system: SF-295
RXF 393 = system: RXF 393
SK-OV-3 = system: SK-OV-3
UO-31 = system: UO-31
UACC-62 = system: UACC-62
HOP-92 = system: HOP-92
KM12 = system: KM12
U-251 = system: U-251

SMILES: CC(=O)N1C(c2[nH]c3ccccc3c2Cc2ccccc2)CCN1c1ccccc1 (stereo not drawn)
- GI50 (OVCAR-3): > 10 µM (inactive)
- GI50 (OVCAR-8): > 10 µM (inactive)
- GI50 (CCRF-CEM): 3.66 µM (inactive)
- GI50 (ACHN): 3.04 µM (inactive)
- GI50 (SW-620): > 10 µM (inactive)
- GI50 (SK-MEL-5): > 10 µM (inactive)
- GI50 (Hs-578T): 9.31 µM (inactive)
- GI50 (NCI-H460): 5.22 µM (inactive)
- GI50 (LOX IMVI): > 10 µM (inactive)
- GI50 (OVCAR-5): > 10 µM (inactive)
- GI50 (SNB-75): 5.83 µM (inactive)
- GI50 (M14): 7.93 µM (inactive)
- GI50 (Malme-3M): > 10 µM (inactive)
- GI50 (SK-MEL-28): > 10 µM (inactive)
- GI50 (SN12C): > 10 µM (inactive)
- GI50 (MCF7): 8.45 µM (inactive)
- GI50 (MOLT-4): 4.4 µM (inactive)
- GI50 (SR): 4.81 µM (inactive)
- GI50 (HT-29): > 10 µM (inactive)
- GI50 (OVCAR-4): > 10 µM (inactive)
- GI50 (IGROV-1): > 10 µM (inactive)
- GI50 (SF-268): 4.72 µM (inactive)
- GI50 (HCC 2998): 5.97 µM (inactive)
- GI50 (RPMI-8226): 6.49 µM (inactive)
- GI50 (NCI-H23): 8.59 µM (inactive)
- GI50 (CAKI-1): 8.47 µM (inactive)
- GI50 (T47D): 6.41 µM (inactive)
- GI50 (MDA-MB-231): > 10 µM (inactive)
- GI50 (NCI-H226): > 10 µM (inactive)
- GI50 (TK-10): > 10 µM (inactive)
- GI50 (UACC-257): > 10 µM (inactive)
- GI50 (K562): 3.05 µM (inactive)
- GI50 (SK-MEL-2): > 10 µM (inactive)
- GI50 (HOP-62): > 10 µM (inactive)
- GI50 (PC-3): 3.24 µM (inactive)
- GI50 (SF-539): > 10 µM (inactive)
- GI50 (HCT-15): > 10 µM
- GI50 (BT-549): > 10 µM (inactive)
- GI50 (HCT-116): 4.72 µM (inactive)
- GI50 (SNB-19): > 10 µM (inactive)
- GI50 (NCI-H522): 8.47 µM (inactive)
- GI50 (DU-145): > 10 µM (inactive)
- GI50 (786-0): > 10 µM (inactive)
- GI50 (HL-60): 5.42 µM (inactive)
- GI50 (COLO 205): 8.81 µM (inactive)
- GI50 (MDA-N): 7.29 µM (inactive)
- GI50 (A549): 4.88 µM (inactive)
- GI50 (MDA-MB-435): 9.06 µM (inactive)
- GI50 (EKVX): > 10 µM (inactive)
- GI50 (NCI/ADR-RES): 9.02 µM (inactive)
- GI50 (SF-295): 4.35 µM (inactive)
- GI50 (RXF 393): 4.16 µM (inactive)
- GI50 (SK-OV-3): > 10 µM (inactive)
- GI50 (UO-31): 8.73 µM (inactive)

SMILES: CCOC(=O)C(NCc1cccc(C(F)(F)F)c1)(NC(=O)CC)C(F)(F)F (stereo not drawn)
- GI50 (OVCAR-3): > 100 µM (inactive)
- GI50 (OVCAR-8): > 100 µM (inactive)
- GI50 (CCRF-CEM): > 100 µM (inactive)
- GI50 (ACHN): > 100 µM (inactive)
- GI50 (SW-620): > 100 µM (inactive)
- GI50 (SK-MEL-5): > 100 µM (inactive)
- GI50 (Hs-578T): > 100 µM (inactive)
- GI50 (LOX IMVI): > 100 µM (inactive)
- GI50 (OVCAR-5): > 100 µM (inactive)
- GI50 (UACC-62): 96.6 µM (inactive)
- GI50 (SNB-75): 63.5 µM (inactive)
- GI50 (M14): > 100 µM (inactive)
- GI50 (Malme-3M): > 100 µM (inactive)
- GI50 (SK-MEL-28): > 100 µM (inactive)
- GI50 (SN12C): > 100 µM (inactive)
- GI50 (MCF7): > 100 µM (inactive)
- GI50 (MOLT-4): 82.6 µM (inactive)
- GI50 (SR): > 100 µM (inactive)
- GI50 (HT-29): > 100 µM (inactive)
- GI50 (OVCAR-4): > 100 µM (inactive)
- GI50 (IGROV-1): 18 µM (inactive)
- GI50 (HOP-92): 71 µM (inactive)
- GI50 (KM12): > 100 µM (inactive)
- GI50 (SF-268): > 100 µM (inactive)
- GI50 (HCC 2998): > 100 µM (inactive)
- GI50 (RPMI-8226): 26 µM (inactive)
- GI50 (NCI-H23): > 100 µM (inactive)
- GI50 (CAKI-1): > 100 µM (inactive)
- GI50 (T47D): 62.4 µM (inactive)
- GI50 (MDA-MB-231): 31.8 µM (inactive)
- GI50 (NCI-H226): > 100 µM (inactive)
- GI50 (TK-10): > 100 µM (inactive)
- GI50 (UACC-257): > 100 µM (inactive)
- GI50 (K562): > 100 µM (inactive)
- GI50 (SK-MEL-2): > 100 µM (inactive)
- GI50 (HOP-62): > 100 µM (inactive)
- GI50 (PC-3): 95.5 µM (inactive)
- GI50 (SF-539): > 100 µM (inactive)
- GI50 (HCT-15): > 100 µM
- GI50 (BT-549): > 100 µM (inactive)
- GI50 (HCT-116): > 100 µM (inactive)
- GI50 (SNB-19): > 100 µM (inactive)
- GI50 (U-251): > 100 µM (inactive)
- GI50 (NCI-H522): > 100 µM (inactive)
- GI50 (DU-145): > 100 µM (inactive)
- GI50 (786-0): > 100 µM (inactive)
- GI50 (HL-60): 58.5 µM (inactive)
- GI50 (COLO 205): > 100 µM (inactive)
- GI50 (MDA-N): > 100 µM (inactive)
- GI50 (A549): 44.2 µM (inactive)
- GI50 (MDA-MB-435): > 100 µM (inactive)
- GI50 (EKVX): 68.5 µM (inactive)
- GI50 (NCI/ADR-RES): > 100 µM (inactive)
- GI50 (SF-295): > 100 µM (inactive)
- GI50 (RXF 393): 5.52 µM (inactive)
- GI50 (SK-OV-3): > 100 µM (inactive)
- GI50 (UO-31): 51.8 µM (inactive)

SMILES: Nc1cc2ncnn2c(SCC(=O)N/N=C/C(Br)=C\c2ccccc2)n1
- GI50 (OVCAR-3): 18.5 µM (inactive)
- GI50 (OVCAR-8): 15.9 µM (inactive)
- GI50 (CCRF-CEM): 5.77 µM (inactive)
- GI50 (ACHN): 16.9 µM (inactive)
- GI50 (SW-620): 16.4 µM (inactive)
- GI50 (SK-MEL-5): 13.4 µM (inactive)
- GI50 (Hs-578T): 23.1 µM (inactive)
- GI50 (NCI-H460): 17.3 µM (inactive)
- GI50 (LOX IMVI): 16 µM (inactive)
- GI50 (OVCAR-5): 22.1 µM (inactive)
- GI50 (UACC-62): 7.23 µM (inactive)
- GI50 (SNB-75): 20.1 µM (inactive)
- GI50 (Malme-3M): 12.1 µM (inactive)
- GI50 (SK-MEL-28): 16 µM (inactive)
- GI50 (SN12C): 17.3 µM (inactive)
- GI50 (MCF7): 14.7 µM (inactive)
- GI50 (MOLT-4): 12.4 µM (inactive)
- GI50 (SR): 10.6 µM (inactive)
- GI50 (HT-29): 14.8 µM (inactive)
- GI50 (IGROV-1): 11.5 µM (inactive)
- GI50 (KM12): 17.9 µM (inactive)
- GI50 (HCC 2998): 19.9 µM (inactive)
- GI50 (RPMI-8226): 10.6 µM (inactive)
- GI50 (NCI-H23): 10.8 µM (inactive)
- GI50 (CAKI-1): 17.9 µM (inactive)
- GI50 (T47D): 3.49 µM (inactive)
- GI50 (MDA-MB-231): 15.5 µM (inactive)
- GI50 (NCI-H226): 20 µM (inactive)
- GI50 (TK-10): 31.8 µM (inactive)
- GI50 (UACC-257): 9.62 µM (inactive)
- GI50 (K562): 12.8 µM (inactive)
- GI50 (HOP-62): 33.6 µM (inactive)
- GI50 (PC-3): 12.6 µM (inactive)
- GI50 (SF-539): 16.7 µM (inactive)
- GI50 (HCT-15): 18.1 µM
- GI50 (BT-549): 17.3 µM (inactive)
- GI50 (HCT-116): 21.7 µM (inactive)
- GI50 (SNB-19): 31 µM (inactive)
- GI50 (U-251): 5.24 µM (inactive)
- GI50 (NCI-H522): 10.6 µM (inactive)
- GI50 (DU-145): > 10 µM (inactive)
- GI50 (786-0): 15.1 µM (inactive)
- GI50 (HL-60): 11.9 µM (inactive)
- GI50 (COLO 205): 19.1 µM (inactive)
- GI50 (MDA-N): 16.2 µM (inactive)
- GI50 (A549): 16.3 µM (inactive)
- GI50 (MDA-MB-435): 15 µM (inactive)
- GI50 (EKVX): 22.5 µM (inactive)
- GI50 (NCI/ADR-RES): 25.5 µM (inactive)
- GI50 (SF-295): 21.8 µM (inactive)
- GI50 (RXF 393): 15.8 µM (inactive)
- GI50 (UO-31): 15.5 µM (inactive)
